What follows are compounds tested against human full-length MKNK1 (Homo sapiens (Human), UniProt Q9BUB5, T344D) (assay: MKNK1 kinase high ATP assay (TR-FRET)). Details: 2 mM ATP, 15 min preincubation with enzyme, GST-MKNK1 (T344D).
Sequence of human full-length MKNK1 (Q9BUB5 other isoform, or with tags, fused parts or gaps T344D): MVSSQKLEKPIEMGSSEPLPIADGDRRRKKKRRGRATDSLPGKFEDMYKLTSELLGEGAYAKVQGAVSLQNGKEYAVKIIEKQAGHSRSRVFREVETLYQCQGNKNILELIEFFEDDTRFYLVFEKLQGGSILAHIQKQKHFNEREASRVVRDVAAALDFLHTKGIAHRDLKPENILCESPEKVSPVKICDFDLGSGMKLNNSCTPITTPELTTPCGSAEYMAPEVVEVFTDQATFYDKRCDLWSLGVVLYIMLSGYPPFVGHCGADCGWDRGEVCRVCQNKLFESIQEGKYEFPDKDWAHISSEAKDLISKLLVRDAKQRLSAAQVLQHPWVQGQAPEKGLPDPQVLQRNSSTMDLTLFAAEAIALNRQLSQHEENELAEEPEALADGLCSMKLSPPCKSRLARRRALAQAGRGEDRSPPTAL
Assay type: biochemical
Outline: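 GST-tagged full-length human MKNK1 (1-424, T344D, baculovirus-expressed) preincubated 15 min at 22 °C with compound, then reacted 30 min at 22 °C with 2 mM ATP and 0.06 μM biotinylated peptide (final) in HEPES pH 7.5. Phospho-substrate by TR-FRET (665/622 nm ratio), normalised to no-inhibitor and no-enzyme controls.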
Work on `Cc1cc(Nc2ncnc3sc(C(=O)NCCN(C)C)cc23)c(=O)n2c1C(=O)NC21CCC(O)(C(F)(F)F)CC1` (centres unmarked) [Example 129, N-[2-(Dimethylamino)ethyl]-4-{[4-hydroxy-8′-methyl-1′,5′-dioxo-4-(trifluoromethyl)-1′,5′-dihydro-2′H-spiro[cyclohexane-1,3′-imidazo[1,5-a]pyridin]-6′-yl]amino}thieno[2,3-d]pyrimidine-6-carboxamide] yielded an IC50 of 21 nM. `Cc1cc(Nc2ncnc3sccc23)c(=O)n2c1C(=O)NC21CCC(O)(C(F)(F)F)CC1` (centres unmarked) [Example 130, 4-Hydroxy-8′-methyl-6′-(thieno[2,3-d]pyrimidin-4-ylamino)-4-(trifluoromethyl)-2′H-spiro[cyclohexane-1,3′-imidazo[1,5-a]pyridine]-1′,5′-dione] was tested, and the IC50 was 7.9 nM. With `Cc1cc(Nc2ncnc(N)n2)c(=O)n2c1C(=O)NC2(C)C` [Example 131, 6-[(4-Amino-1,3,5-triazin-2-yl)amino]-3,3,8-trimethyl-2,3-dihydroimidazo[1,5-a]pyridine-1,5-dione] the IC50 was 32.2 nM. `Cc1cc(Nc2ncnc3[nH]ccc23)c(=O)n2c1C(=O)NC2(C)C` [Example 132, 3,3,8-Trimethyl-6-(7H-pyrrolo[2,3-d]pyrimidin-4-ylamino)-2,3-dihydroimidazo[1,5-a]pyridine-1,5-dione] showed an IC50 of 0.7 nM. `Cc1cc(Nc2ncnc3[nH]ncc23)c(=O)n2c1C(=O)NC2(C)C` [Example 133, 3,3,8-Trimethyl-6-(1H-pyrazolo[3,4-d]pyrimidin-4-ylamino)-2,3-dihydroimidazo[1,5-a]pyridine-1,5-dione] was tested, and the IC50 was 10.1 nM. `Cc1cc(Nc2ncnc3[nH]cnc23)c(=O)n2c1C(=O)NC2(C)C` [Example 134, 3,3,8-Trimethyl-6-(9H-purin-6-ylamino)-2,3-dihydroimidazo[1,5-a]pyridine-1,5-dione] was tested, and the IC50 was 5.8 nM. `Cc1cc(Nc2ncnc3sccc23)c(=O)n2c1C(=O)NC2(C)C` [Example 135, 3,3,8-Trimethyl-6-(thieno[2,3-d]pyrimidin-4-ylamino)-2,3-dihydroimidazo[1,5-a]pyridine-1,5-dione] was tested, and the IC50 was 19.8 nM. Work on `Cc1cc(Nc2ncnc3sc(C(=O)O)cc23)c(=O)n2c1C(=O)NC2(C)C` [Example 136, 4-[(3,3,8-Trimethyl-1,5-dioxo-1,2,3,5-tetrahydroimidazo[1,5-a]pyridin-6-yl)amino]thieno[2,3-d]pyrimidine-6-carboxylic acid] yielded an IC50 of 122 nM. For `Cc1cc(Nc2ncnc3sc(C(=O)NCCN(C)C)cc23)c(=O)n2c1C(=O)NC2(C)C` [Example 137, N-[2-(Dimethylamino)ethyl]-4-[(3,3,8-trimethyl-1,5-dioxo-1,2,3,5-tetrahydroimidazo[1,5-a]pyridin-6-yl)amino]thieno[2,3-d]pyrimidine-6-carboxamide], the IC50 was 21.1 nM. With `Cc1cc(Nc2ncnc3sc(C(=O)N(C)CCN(C)C)cc23)c(=O)n2c1C(=O)NC2(C)C` [Example 138, N-[2-(Dimethylamino)ethyl]-N-methyl-4-[(3,3,8-trimethyl-1,5-dioxo-1,2,3,5-tetrahydroimidazo[1,5-a]pyridin-6-yl)amino]thieno[2,3-d]pyrimidine-6-carboxamide] the IC50 was 33.6 nM. `Cc1cc(Nc2ncnc3sc(C(=O)N4CC(NC(=O)OC(C)(C)C)C4)cc23)c(=O)n2c1C(=O)NC2(C)C` [Example 139, tert-Butyl [1-({4-[(3,3,8-trimethyl-1,5-dioxo-1,2,3,5-tetrahydroimidazo[1,5-a]pyridin-6-yl)amino]thieno[2,3-d]pyrimidin-6-yl}carbonyl)azetidin-3-yl]carbamate] gave an IC50 of 24.1 nM. `Cc1cc(Nc2ncnc3sc(C(=O)N4CC(N)C4)cc23)c(=O)n2c1C(=O)NC2(C)C` [Example 140, 6-({6-[(3-Aminoazetidin-1-yl)carbonyl]thieno[2,3-d]pyrimidin-4-yl}amino)-3,3,8-trimethyl-2,3-dihydroimidazo[1,5-a]pyridine-1,5-dione] showed an IC50 of 22.3 nM. Work on `Cc1cc(Nc2ncnc3sc(C(=O)N4CC(C#N)C4)cc23)c(=O)n2c1C(=O)NC2(C)C` [Example 141, 1-({4-[(3,3,8-Trimethyl-1,5-dioxo-1,2,3,5-tetrahydroimidazo[1,5-a]pyridin-6-yl)amino]thieno[2,3-d]pyrimidin-6-yl}carbonyl)azetidine-3-carbonitrile] yielded an IC50 of 24.2 nM. `Cc1cc(Nc2ncnc3sc(C(=O)N4CC[C@@H](N(C)C)C4)cc23)c(=O)n2c1C(=O)NC2(C)C` [Example 142, 6-[(6-{[(3R)-3-(Dimethylamino)pyrrolidin-1-yl]carbonyl}thieno[2,3-d]pyrimidin-4-yl)amino]-3,3,8-trimethyl-2,3-dihydroimidazo[1,5-a]pyridine-1,5-dione] gave an IC50 of 20 nM. `Cc1cc(Nc2ncnc3sc(C(=O)N4CCC(N(C)C)CC4)cc23)c(=O)n2c1C(=O)NC2(C)C` [Example 143, 6-[(6-{[4-(Dimethylamino)piperidin-1-yl]carbonyl}thieno[2,3-d]pyrimidin-4-yl)amino]-3,3,8-trimethyl-2,3-dihydroimidazo[1,5-a]pyridine-1,5-dione] was tested, and the IC50 was 40.3 nM. For `Cc1cc(Nc2ncnc3sc(C(=O)N4C[C@H]5C[C@@H]4CO5)cc23)c(=O)n2c1C(=O)NC2(C)C` [Example 144, 3,3,8-Trimethyl-6-({6-[(1R,4R)-2-oxa-5-azabicyclo[2.2.1]hept-5-ylcarbonyl]thieno[2,3-d]pyrimidin-4-yl}amino)-2,3-dihydroimidazo[1,5-a]pyridine-1,5-dione], the IC50 was 12.9 nM. `Cc1cc(Nc2ncnc3sc(C(=O)O)c(C)c23)c(=O)n2c1C(=O)NC2(C)C` [Example 145, 5-Methyl-4-[(3,3,8-trimethyl-1,5-dioxo-1,2,3,5-tetrahydroimidazo[1,5-a]pyridin-6-yl)amino]thieno[2,3-d]pyrimidine-6-carboxylic acid] showed an IC50 of 115 nM. With `Cc1cc(Nc2ncnc(NC(=O)C3CC3)n2)c(=O)n2c1C(=O)NC21CCC1` [Example 146, N-{4-[(8′-Methyl-1′,5′-dioxo-1′,5′-dihydro-2′H-spiro[cyclobutane-1,3′-imidazo[1,5-a]pyridin]-6′-yl)amino]-1,3,5-triazin-2-yl}cyclopropanecarboxamide] the IC50 was 8.2 nM. `Cc1cc(Nc2ncnc(N)n2)c(=O)n2c1C(=O)NC21CCC1` [Example 147, 6′-[(4-Amino-1,3,5-triazin-2-yl)amino]-8′-methyl-2′H-spiro[cyclobutane-1,3′-imidazo[1,5-a]pyridine]-1′,5′-dione] was tested, and the IC50 was 12.7 nM. `Cc1cc(Nc2ncnc3[nH]ccc23)c(=O)n2c1C(=O)NC21CCC1` [Example 148, 8′-Methyl-6′-(7H-pyrrolo[2,3-d]pyrimidin-4-ylamino)-2′H-spiro[cyclobutane-1,3′-imidazo[1,5-a]pyridine]-1′,5′-dione] gave an IC50 of 0.4 nM. `Cc1cc(Nc2ncnc3sccc23)c(=O)n2c1C(=O)NC21CCC1` [Example 149, 8′-Methyl-6′-(thieno[2,3-d]pyrimidin-4-ylamino)-2′H-spiro[cyclobutane-1,3′-imidazo[1,5-a]pyridine]-1′,5′-dione] gave an IC50 of 2.3 nM. `Cc1cc(Nc2ncnc3sc(C(=O)O)cc23)c(=O)n2c1C(=O)NC21CCC1` [Example 150, 4-[(8′-Methyl-1′,5′-dioxo-1′,5′-dihydro-2′H-spiro[cyclobutane-1,3′-imidazo[1,5-a]pyridin]-6′-yl)amino]thieno[2,3-d]pyrimidine-6-carboxylic acid] was tested, and the IC50 was 18.5 nM. `Cc1cc(Nc2ncnc3sc(C(=O)NCCN(C)C)cc23)c(=O)n2c1C(=O)NC21CCC1` [Example 151, N-[2-(Dimethylamino)ethyl]-4-[(8′-methyl-1′,5′-dioxo-1′,5′-dihydro-2′H-spiro[cyclobutane-1,3′-imidazo[1,5-a]pyridin]-6′-yl)amino]thieno[2,3-d]pyrimidine-6-carboxamide] gave an IC50 of 4 nM. `Cc1cc(Nc2ncnc3sc(C(=O)N(C)CCN(C)C)cc23)c(=O)n2c1C(=O)NC21CCC1` [Example 152, N-[2-(Dimethylamino)ethyl]-N-methyl-4-[(8′-methyl-1′,5′-dioxo-1′,5′-dihydro-2′H-spiro[cyclobutane-1,3′-imidazo[1,5-a]pyridin]-6′-yl)amino]thieno[2,3-d]pyrimidine-6-carboxamide] was tested, and the IC50 was 7.4 nM. Work on `Cc1cc(Nc2ncnc3sc(C(=O)N4CC(NC(=O)OC(C)(C)C)C4)cc23)c(=O)n2c1C(=O)NC21CCC1` [Example 153, tert-Butyl [1-({4-[(8′-methyl-1′,5′-dioxo-1′,5′-dihydro-2′H-spiro[cyclobutane-1,3′-imidazo[1,5-a]pyridin]-6′-yl)amino]thieno[2,3-d]pyrimidin-6-yl}carbonyl)azetidin-3-yl]carbamate] yielded an IC50 of 5.3 nM. Compound `Cc1cc(Nc2ncnc3sc(C(=O)N4CC(N)C4)cc23)c(=O)n2c1C(=O)NC21CCC1` [Example 154, 6′-({6-[(3-Aminoazetidin-1-yl)carbonyl]thieno[2,3-d]pyrimidin-4-yl}amino)-8′-methyl-2′H-spiro[cyclobutane-1,3′-imidazo[1,5-a]pyridine]-1′,5′-dione] has an IC50 of 5 nM. Compound `Cc1cc(Nc2ncnc3sc(C(=O)N4CC(C#N)C4)cc23)c(=O)n2c1C(=O)NC21CCC1` [Example 155, 1-({4-[(8′-Methyl-1′,5′-dioxo-1′,5′-dihydro-2′H-spiro[cyclobutane-1,3′-imidazo[1,5-a]pyridin]-6′-yl)amino]thieno[2,3-d]pyrimidin-6-yl}carbonyl)azetidine-3-carbonitrile] has an IC50 of 5.3 nM. `Cc1cc(Nc2ncnc3sc(C(=O)N4CC[C@@H](N(C)C)C4)cc23)c(=O)n2c1C(=O)NC21CCC1` [Example 156, 6′-[(6-{[(3R)-3-(Dimethylamino)pyrrolidin-1-yl]carbonyl}thieno[2,3-d]pyrimidin-4-yl)amino]-8′-methyl-2′H-spiro[cyclobutane-1,3′-imidazo[1,5-a]pyridine]-1′,5′-dione] showed an IC50 of 4.3 nM. For `Cc1cc(Nc2ncnc3sc(C(=O)N4CCC(N(C)C)CC4)cc23)c(=O)n2c1C(=O)NC21CCC1` [Example 157, 6′-[(6-{[4-(Dimethylamino)piperidin-1-yl]carbonyl}thieno[2,3-d]pyrimidin-4-yl)amino]-8′-methyl-2′H-spiro[cyclobutane-1,3′-imidazo[1,5-a]pyridine]-1′,5′-dione], the IC50 was 7.9 nM.
